According to patent US20100273732A1, “COMBINATION METHODS OF TREATING CANCER” (priority 2003, published 2010):
Like-named read-outs stand apart in the source and are kept apart here.

Assays:
LnCap (prostate) cells = assay: alamarBlue proliferation inhibition, drug combination experiments, LnCap; type: cell-based; settings: Homo sapiens, 96 h
Protocol: (§1) Drug combination experiments were performed on five human cancer cell lines: T24 (bladder carcinoma), LnCap (prostate), MCF7 (breast), DLCL (non-Hodgkin's lymphoma) and LCC18 (colon carcinoid). Each cell line was cultured and incubated at 37° C. in its required medium: MEM a (10% FCS), RPMI 1640 (10% FCS), DME HG (10% FCS), enhanced RPMI (10% FCS), and Hites medium (5% FCS), respectively.
(§2) DLCL, a suspension cell line, was plated on 96 well plates on the same day of the experiment. For T24, LnCap, DLCL and LCC18, 200 μL containing 2000 cells were plated into each well. For MCF7, 4000 cells/well were plated to account for the line's slower cell cycle.
(§3) Cells that received no treatment served as a control group.
(§4) To administer treatment to adherent cell lines (T24, LnCap, MCF7), media in each well was aspirated and replaced with 200 μL of media containing desired concentration of drug or drugs. For all other cell lines ([…] and DLCL), 22 μL of media containing 10 times the desired concentration of drug or drugs was added to 200 μL of media in each well.
(§5) After treatment, cells were incubated at 37° C. for 4 days. On the fourth day, each well was treated with 20 μL of alamarBlur™, an aqueous dye, and incubated for 4 hours at 37° C. The reduction of this dye, when absorbed by cells, is greater in proliferating cells than in non-proliferating cells because of an increased concentration of NADPH, FADH, FMNH and NADH. The reduction was measured by fluorescence using a SpectaMax GeminiXS® spectrofluorometric microtiter well plate reader (Molecular Devices Corporation, Sunnyvale, Calif.). Data was expressed as fluorescence emission intensity units as a function of time of incubation and analyzed using SOFTmax PRO® v. 4.0 software (Molecular Devices Corp. Sunnyvale, Calif.). In order to assess the percent inhibition of cell growth four days after drug treatment, the following formula was used:
(§6) 100−(Mean Intensity Units/Well with Identical Treatment)*100(Mean Intensity Units/Well in Control Group)
(§7) The concentrations used for treatment with each drug are based on the dose that inhibits 50% of proliferation for each drug. The following concentrations were tested:
(§8) a) 50% effective dose/4; b) 50% effective dose/2; c) 50% effective dose; d) 50% effective dose*2; and e) 50% effective dose*4. […] A polynomial relationship was defined between drug concentration and percent inhibition using various concentrations, and this function was used to predict the concentration of each drug required to inhibit proliferation of 50% of the cells.
(§9) The following criteria were established for assessing additive, synergistic and antagonistic interactions: […]

[1] = tested on: T24 (bladder carcinoma) cells; assay: alamarBlue proliferation inhibition, drug combination experiments, T24; type: cell-based; settings: Homo sapiens, 96 h, read-out: 50% inhibition Effective Dose, T24, 4 days
Protocol: as §1, §2, §3, §4, §5, §6, §7, §8, §9

T24 cell line = assay: Cell proliferation and viability count, SAHA and 5-azacytidine, T24; type: cell-based, human; settings: 200 nM 5-azacytidine (27.5 h pre-incubation), 5 μM SAHA or both
Protocol: Cells were cultured in T-150 flasks at 37° C. in RPMI with 10% FCS. Cells were diluted in a complete medium to a density of 5.0×10^4 cells/ml. The cells were incubated at 37° C. for 14 hours before treatment with 5-azacytidine to allow cells to adhere to the wells.
Concentrations of 5-azacytidine were prepared by serial dilution of from a 1 mM stock. After 14-hour incubation in complete medium, wells were aspirated and the medium was replaced to 1 ml of 5-azacytidine at the indicated concentration.
(§10) To assay for proliferation and viability, triplicate samples of cells were harvested and counted for proliferation and viability at the indicated time points as described above in Example 2.

[2] = tested on: carcinogen-induced (N-methylnitrosourea) mammary tumors; settings: rats; SAHA in diet over 130 days; cited from earlier work
LnCap cell line = assay: Cell proliferation and viability count, SAHA and gemcitabine, LnCap; type: cell-based, human; settings: 2 nM gemcitabine, 5 μM SAHA or both, 72 hours
Protocol: Cells were plated at a density of 2.5×10^4 cells/ml in RMPI medium with 10% FCS, and were allowed to adhere to wells.
Gemcitabine was reconstituted in medium and the pH was adjusted to 7 using 1N NaOH. Concentrations of gemcitabine were prepared by serial dilution of gemcitabine in complete medium.
The cells were then cultured with medium containing the compound or combination of compounds.
as §10

[3] = read-out: 50% inhibition Effective Dose, LnCap, agent alone, 4 days
[4] = read-out: 50% inhibition Effective Dose, LnCap, in combination with SAHA 0.125 μM, 4 days
[5] = read-out: 50% inhibition Effective Dose, LnCap, in combination with SAHA 0.5 μM, 4 days
[6] = read-out: 50% inhibition Effective Dose, LnCap, in combination with SAHA 1.0 μM, 4 days
[7] = read-out: 50% inhibition Effective Dose, LnCap, in combination with SAHA 2.0 μM, 4 days
[8] = in combination with SAHA 0.625 μM
[9] = in combination with SAHA 1.25 μM
[10] = in combination with SAHA 5.0 μM
[11] = in combination with SAHA 10.0 μM
[12] = read-out: 50% inhibition Effective Dose, LnCap, in combination with SAHA 0.25 μM, 4 days
[13] = in combination with SAHA 2.5 μM

Row | IC50 (LnCap (prostate) cells; [3]) | IC50 (LnCap (prostate) cells; [4]) | IC50 (LnCap (prostate) cells; [5]) | IC50 (LnCap (prostate) cells; [6]) | IC50 (LnCap (prostate) cells; [7]) | IC50 ([1]; agent alone) | IC50 [1, 8] | IC50 [1, 9] | IC50 [1, 10] | IC50 [1, 11] | IC50 (LnCap (prostate) cells; [12]) | IC50 [1, 13] | SMILES | Effect on cell proliferation (FIG. 3) (T24 cell line) | Development and continued growth of mammary tumors [2] | Effect on cell proliferation (FIG. 2) (LnCap cell line)
1 | 2.1 nM | 1.2 nM | 0.6 nM | 0.34 nM | 0.12 nM | 2.1 nM | 0.51 nM | 0.72 nM | 0.29 nM | 0.05 nM | 1.2 nM | 0.59 nM | CC(=O)O[C@@]12CO[C@@H]1C[C@H](O)[C@@]1(C)C(=O)[C@H](O)C3=C(C)[C@@H](OC(=O)[C@H](O)[C@@H](NC(=O)OC(C)(C)C)c4ccccc4)C[C@@](O)([C@@H](OC(=O)c4ccccc4)[C@H]21)C3(C)C [Docetaxel] | – | – | –
2 | 5.1 nM | 5.1 nM | 3.8 nM | 1.9 nM | 1.9 nM | 5.1 nM | 4.1 nM | 2.8 nM | 1.4 nM | 0.28 nM | 4.1 nM | 1.9 nM | CCc1c2c(nc3ccc(OC(=O)N4CCC(N5CCCCC5)CC4)cc13)-c1cc3c(c(=O)n1C2)COC(=O)[C@]3(O)CC [Irinotecan] | – | – | –

More lines, now with the values behind:

Row | SMILES | IC50 (LnCap (prostate) cells; [3]) | IC50 (LnCap (prostate) cells; [4]) | IC50 (LnCap (prostate) cells; [5]) | IC50 (LnCap (prostate) cells; [6]) | IC50 (LnCap (prostate) cells; [7]) | IC50 ([1]; agent alone) | IC50 [1, 8] | IC50 [1, 9] | IC50 [1, 10] | IC50 [1, 11] | IC50 (LnCap (prostate) cells; [12]) | IC50 [1, 13] | Effect on cell proliferation (FIG. 3) (T24 cell line) | Development and continued growth of mammary tumors [2] | Effect on cell proliferation (FIG. 2) (LnCap cell line)
3 | O=c1[nH]cc(F)c(=O)[nH]1 [5-FU, 5-Fluorouracil] | 3000 nM | 5200 nM | 1600 nM | 1900 nM | 990 nM | 14000 nM | 13100 nM | 11500 nM | 2700 nM | 1500 nM | – | – | – | – | –
4 | Nc1ncn([C@@H]2O[C@H](CO)[C@@H](O)[C@H]2O)c(=O)n1 [5-azacytidine] | – | – | – | – | – | – | – | – | – | – | – | – | significantly inhibited proliferation | – | –
5 | O=C(CCCCCCC(=O)Nc1ccccc1)NO [SAHA, suberoylanilide hydroxamic acid] | – | – | – | – | – | – | – | – | – | – | – | – | significantly inhibited proliferation | effective at inhibiting the development and continued growth | significantly inhibited proliferation
6 | Nc1ccn([C@@H]2O[C@H](CO)[C@@H](O)C2(F)F)c(=O)n1 [gemcitabine] | – | – | – | – | – | – | – | – | – | – | – | – | – | – | small effect
